Experimental data published in US4407818A, “Anti viral, anti bacterial and/or anti fungal composition containing metal oxyalkylate” (Bio-Systems Research, Inc., priority 1981, dated 1983).
Values joined by “and” are separate entries in the source; they are usually repeats but may differ in a detail not shown here. Identical values can stand only once. “Also recorded” adds a separate entry of the source.

Legend:
[1] = system: HSV-2; test: Plaque assay, HSV-2 (Examples 5-7); type: cell-based, Herpes simplex virus type II
[2] = system: HSV-2; test: CPE trial on HSV-2 (Examples 15-16); type: cell-based, Herpes simplex virus type II
[3] = system: HSV-1; test: CPE trial on HSV-1 (Examples 15-16); type: cell-based, Herpes simplex virus type I; settings: in words
[4] = Solubility in 2% FBS-MEM
[5] = system: HSV-1; test: Plaque assay, HSV-1 (Examples 8-11); type: cell-based, Herpes simplex virus type I
[6] = system: Echo 5; test: CPE trial on Echo 5 (Examples 12-14); type: cell-based; settings: in words
[7] = system: Polio 1; type: cell-based; settings: in words; CPE trial
[8] = system: Adenovirus type 4; test: CPE trial on Adenovirus type 4 using KB cells (Example 17); type: cell-based
[9] = system: Herpes simplex virus type 1 (HSV-1); test: Neutralization of viral cytopathogenic effect (CPE) on BGM cells, HSV-1 (Example 3); type: cell-based
Method: (§1) Evaluation of the compound is made using a simple neutralization of viral cytopathogenic effect (CPE) on Buffalo Green Monkey (BGM) cells using two tubes for each dilution of virus. […] In order to evaluate zinc oxyacetate, the compound (or the compound in equal weight admixture with lauryl alcohol) is incubated for 1 hour with the virus prior to making ten-fold serialdilutions and innoculating the BGM tubes. The amount of virus used is 0.1 ml. The amount of test material used is 0.1 ml of a solution containing 0.1% of Tween 80 and 0.1% of the test material.

[10] = system: Staphylococcus aureus; test: Filter paper disc bacterial inhibition test on agar plates (Example 1); type: cell-based; settings: .01% solution (as headed); for Clear Area, Average: average of plates 1-4; for Clear Area: single plate, overnight at 37° C., -- counted as zero in the average
[11] = system: Staphylococcus aureus; test: as above; type: cell-based; settings: for Clear Area, Average: average of plates 1-4; for Clear Area: single plate, overnight at 37° C.
Method: (§2) A stock (1%) solution is prepared by dissolving 0.1 gm of zinc ocyacetate in 10 ml of water. A 1/2 dilution (0.5% solution) is made by admixing 5 ml of the stock solution and 5 ml of water. A 1/4 dilution (0.25% solution) is made by admixing 5 ml of the 0.5% solution and 5 ml of water. A 1/10 dilution (0.1% solution) is made by admixing 1 ml of the stock (1%) solution and 9 ml of water. Fine filter paper discs of 1 cm diameter are placed in each of four clean petri dishes. In dish #1, 0.1 ml of the 1% solution is dropped onto each filter disc and allowed to air dry. The same is done in dish #2 except that the 0.5% solution is used. The same is done on dishes #3 and #4 except that the 0.25 and 0.1% solutions, respectively,are used. One ml of a previously prepared 1×10^-4 dilution of a broth bacterial culture (Staphylococcus aureus) is then spread evenly over the entire surface of four agar plates. At the 12 o'clock position on each of the agar plates, a disc from dish #1 (1% solution) is placed. Discs from dishes #2, #3 and #4 are similarly placed at the 3 o'clock, 6 o'clock, and 9 o'clock positions, respectively, of each of the four plates. Each disc is gently pressed to enure good contact with the agar surface. For comparison purposes, a further stock solution of zinc sulphate (1%) is made up and an identical series of tests made. Each plate is incubated overnight at 37° C. and the area of inhibition--the clear area around each disc--is measured.

[12] = system: Bread mold; test: Disc growth inhibition of bread mold on nutrient plate (Example 2); type: cell-based
Method: as §2, with “measured. Bread mold is innoculated on a nutrient plate.” for “measured.”

[13] = system: HSV-2; test: Neutralization of viral cytopathogenic effect (CPE) on BGM cells, HSV-2 (Example 3); type: cell-based, Herpes simplex virus type II
Method: as §1

[14] = system: Candida albicans; test: Inhibition of molds, size of cleared area (Example 4); type: cell-based; settings: 0.1 ml of a 1% solution containing 0.1% Tween 80
Method: (§3) Bread mold is innoculated on a nutrient plate.
(§4) In a test similar to that of Example 2, zinc oxyacetate is tested for inhibition of four bread molds. The amount of zinc oxyacetate is 0.1 ml of a 1% solution containing 0.1% Tween 80. The amount of mold is 0.1 ml.

[15] = system: Trichophyton mentagrophytes; test: as above; type: cell-based; settings: 0.1 ml of a 1% solution containing 0.1% Tween 80
Method: as §3, §4

[16] = system: Trichophyton rubrum; test: as above; type: cell-based; settings: 0.1 ml of a 1% solution containing 0.1% Tween 80
Method: as §3, §4

[17] = system: Microsporum canis; test: as above; type: cell-based; settings: 0.1 ml of a 1% solution containing 0.1% Tween 80
Method: as §3, §4

[18] = Visible precipitate under sensitivity disc (Example 1); type: physicochemical; settings: 1% and 0.50% concentration
Method: as §2, with “For comparison purposes, a further stock solution of zinc sulphate (1%) is made up and an identical series of tests made.” left out

In the case of CC(=O)[O-].CC(=O)[O-].CC(=O)[O-].CC(=O)[O-].CC(=O)[O-].CC(=O)[O-].[Mn+2].[Mn+2].[Mn+2].[Mn+2].[O-2] [Manganese compound, Magnanese oxyacetate], the “plaque assay result, HSV-2” value ([1]; HSV-2 10^-1 (Example 5), control ND) is reported as “Toxic”, the “plaque assay result, HSV-2” value ([1]; HSV-2 10^-2 (Example 6), control 39) is reported as 4 and the “plaque assay result, HSV-2” value ([1]; HSV-2 10^-3 (Example 7), control 5) is reported as 0. For the same molecule, the “inhibition of HSV-2 (plaque assay)” value ([1]; in words) was “less effective than the zinc composition; also recorded: both substances inhibited HSV-2”, the “size of the BGM cells” value ([2]; 10^-1 dilution of HSV-2) was “increase in the size of the BGM cells” and the “inhibition of HSV-2” value ([2]; 10^-1 dilution of HSV-2, BGM cells) was “inhibit the virus completely”. The “inhibition of HSV-2” value ([2]; 10^-2 and 10^-3 dilution, one tube in each dilution, later typical syncytial formation) was “early inhibition of virus”, the “CPE result (titer column), HSV-2” value ([2]; BGM cells, control 10^-2.5) was “Inhibition” and the “effectiveness against HSV-2” value ([2]; in words, CPE trial) was “effective against HSV-2”. The “type of action against HSV-2 (viristatic / viricidal)” value ([2]; in words, CPE trial) was “apparent viristatic action”, the “effectiveness against HSV-1” value [3] was “probably not effective against HSV-1” and the “solubility (in words)” value [4] was “readily soluble”. The “plaque assay result, HSV-1” value ([5]; HSV-1 10^-2 (Example 8), 0% methylcellulose overlay, control TNC (too numerous to count)) was 90, the “plaque assay result, HSV-1” value ([5]; HSV-1 10^-2 (Example 8), 1.5% methylcellulose overlay, control ND, Irr = irregular results, TNC = too numerous to count) was “Irr” and the “plaque assay result, HSV-1” value ([5]; HSV-1 10^-2 (Example 8), 2% methylcellulose overlay, control ND, Irr = irregular results, TNC = too numerous to count) was “Irr”. For the same molecule, the “plaque assay result, HSV-1” value ([5]; HSV-1 10^-3 (Example 9), 0% methylcellulose overlay, control 34) was 11, the “plaque assay result, HSV-1” value ([5]; HSV-1 10^-3 (Example 9), 1.5% methylcellulose overlay, control TNC) was 45 and the “plaque assay result, HSV-1” value ([5]; HSV-1 10^-3 (Example 9), 2% methylcellulose overlay, control 115) was 46. For the same molecule, the “plaque assay result, HSV-1” value ([5]; HSV-1 10^-4 (Example 10), 0% methylcellulose overlay, control 6) was 4, the “plaque assay result, HSV-1” value ([5]; HSV-1 10^-4 (Example 10), 1.5% methylcellulose overlay, control 38) was 5 and the “plaque assay result, HSV-1” value ([5]; HSV-1 10^-4 (Example 10), 2% methylcellulose overlay, control 10) was 5. For the same molecule, the “plaque assay result, HSV-1” value ([5]; HSV-1 10^-5 (Example 11), 0% methylcellulose overlay, control 5) was 0, the “plaque assay result, HSV-1” value ([5]; HSV-1 10^-5 (Example 11), 1.5% methylcellulose overlay, control 3) was 0 and the “plaque assay result, HSV-1” value ([5]; HSV-1 10^-5 (Example 11), 2% methylcellulose overlay, control 3) was 0. For the same molecule, the “effectiveness against Echo 5” value [6] was “not effective”, the “effectiveness against Polio 1” value [7] was “not effective” and the “titer, Adenovirus type 4” value ([8]; in all cases) was 10^-3. The “effectiveness in inhibiting the CPE of Adenovirus type 4” value ([8]; in words) was “neither the test compound nor Zn carrier are effective”.

With CC(=O)O.CC(=O)O.CC(=O)O.CC(=O)O.CC(=O)O.CC(=O)O.[O-2].[Zn+2].[Zn+2].[Zn+2].[Zn+2] [Zinc oxyacetate, zibnc, hexakis(acetato) oxotetra] the “Titer based on 4+(100%) CPE, HSV-1” value ([9]; BGM cells, 1 hour preincubation with virus, 0.1% test material, 0.1% Tween 80, control 10^-4) was 10^-3, the “effectiveness in inhibiting the virus” value ([9]; in words, HSV-1, BGM cells) was “effective in inhibiting the virus” and the “log inhibition, HSV-1” value ([9]; titer reduction versus control) was 1 log. The “Clear Area, Average” value [10] was 0.31 cm, the “Clear Area” value [10] was 1.25 cm and the “Clear Area, Average” value ([11]; 1% solution) was 1.82 cm. For the same molecule, the “Clear Area” value ([11]; 1% solution) was 1.85 cm and 1.80 cm and 1.78 cm, the “Clear Area, Average” value ([11]; .25% solution) was 1.37 cm and the “Clear Area” value ([11]; .25% solution) was 1.32 cm and 1.35 cm and 1.40 cm and 1.42 cm. The “Clear Area, Average” value ([11]; .5% solution) was 1.64 cm, the “Clear Area” value ([11]; .5% solution) was 1.70 cm and 1.52 cm and 1.61 cm and 1.72 cm and the bacteriostatic qualities ([11]; in words, versus zinc sulphate) was “bacteriostatic qualities comparable to those of zinc sulphate”. For the same molecule, the “growth inhibition of bread mold” value ([12]; 1% solution) was “good growth inhibition”, the “growth inhibition of bread mold” value ([12]; less concentrated solution) was “does not noticeably inhibit growth” and the “growth inhibition of bread mold” value ([12]; undiluted material) was “good growth inhibition”. The “Titer based on 4+(100%) CPE, HSV-2” value ([13]; BGM cells, 1 hour preincubation with virus, 0.1% test material, 0.1% Tween 80, control 10^-2) was 0, the “effectiveness in inhibiting the virus” value ([13]; in words, HSV-2, BGM cells) was “effective in inhibiting the virus” and the “log inhibition, HSV-2” value ([13]; titer reduction versus control) was 2 log. The “Size of cleared area, Candida albicans” value [14] was 9 mm, the “Size of cleared area, Trichophyton mentagrophytes” value [15] was 9 mm and the “Size of cleared area, Trichophyton rubrum” value [16] was 5 mm. The “Size of cleared area, Microsporum canis” value [17] was 8 mm.

In the case of O=S(=O)([O-])[O-].[Zn+2] [Zinc sulphate, zinc sulphate, reference compound], the “Clear Area, Average” value [10] is reported as 0.61 cm, the “Clear Area” value [10] is reported as 1.22 cm and 1.21 cm and the “Clear Area, Average” value ([11]; 1% solution) is reported as 1.66 cm. The “Clear Area” value ([11]; 1% solution) was 1.80 cm and 1.72 cm and 1.71 cm and 1.42 cm, the “Clear Area, Average” value ([11]; .25% solution) was 1.37 cm and the “Clear Area” value ([11]; .25% solution) was 1.40 cm and 1.39 cm and 1.31 cm. For the same molecule, the “Clear Area, Average” value ([11]; .5% solution) was 1.44 cm, the “Clear Area” value ([11]; .5% solution) was 1.50 cm and 1.45 cm and 1.41 cm and 1.40 cm and the “visible precipitate under each sensitivity disc” value [18] was “a visible precipitate formed under each sensitivity disc”.
